# Source: PubChem BioAssay (NCI)
#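 Five compound concentrations were applied to cells in 96-well plates for 48 hours; endpoints were derived by simple linear interpolation of the resulting dose-response curve. TGI denotes the concentration required for complete inhibition of growth.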
# Columns and labels:
# Assay in all cases: NCI-60 cell line screen, 48 h
# [1] = tested on: HOP-62 NSCLC
# [2] = tested on: OVCAR-5 ovarian
# [3] = tested on: SK-OV-3 ovarian
# [4] = tested on: HCT-15 colon
# [5] = tested on: MALME-3M melanoma
# [6] = tested on: UACC-62 melanoma
# [7] = tested on: SF-295 CNS
# [8] = tested on: NCI-H460 lung
# [9] = tested on: NCI-H522 lung
# [10] = tested on: HCT-116 colon
# [11] = tested on: SW-620 colon
# [12] = tested on: TK-10 renal
# [13] = tested on: SF-268 CNS
# [14] = tested on: HCC-2998 colon
# [15] = tested on: SK-MEL-2 melanoma
# [16] = tested on: SNB-75 CNS
# [17] = tested on: SF-539 CNS
# [18] = tested on: 786-0 renal
# [19] = tested on: A498 renal
# [20] = tested on: M14 melanoma
# [21] = tested on: NCI-H23 lung
# [22] = tested on: U251 CNS
# [23] = tested on: SK-MEL-5 melanoma
# [24] = tested on: CCRF-CEM leukemia
# [25] = tested on: LOX IMVI melanoma
# [26] = tested on: SK-MEL-28 melanoma
# [27] = tested on: A549 NSCLC
# [28] = tested on: OVCAR-4 ovarian
# [29] = tested on: XF 498 CNS
# [30] = tested on: SNB-19 CNS
# [31] = tested on: KM12 colon
# [32] = tested on: ACHN renal
# [33] = tested on: COLO 205 colon
# [34] = tested on: OVCAR-8 ovarian
# [35] = tested on: NCI-H226 lung
# [36] = tested on: HT29 colon
# [37] = tested on: OVCAR-3 ovarian
# [38] = tested on: MOLT-4 leukemia
# [39] = tested on: KM20L2 colon
# [40] = tested on: SNB-78 CNS
# [41] = tested on: UO-31 renal
# [42] = tested on: DLD-1 colon
# [43] = tested on: SN12C renal
# [44] = tested on: RXF 393 renal
# [45] = tested on: EKVX NSCLC
# [46] = tested on: HOP-18 NSCLC
# [47] = tested on: UACC-257 melanoma
# [48] = tested on: IGROV1 ovarian
# [49] = tested on: DMS 114 small cell lung
# [50] = tested on: K-562 leukemia
# [51] = tested on: LXFL 529 NSCLC
# [52] = tested on: M19-MEL melanoma
# [53] = tested on: DMS 273 small cell lung
# [54] = tested on: CAKI-1 renal
# [55] = tested on: HL-60(TB) leukemia
# [56] = tested on: RPMI-8226 leukemia
# [57] = tested on: HOP-92 NSCLC
# [58] = tested on: RXF-631 renal
# [59] = tested on: SR leukemia
structure (smiles),measurement,setting,value
CC1(C)CCCC2(C)C3C(O)CC2(C)C(O)C31 (centres undefined),TGI,[1],> 100 µM
same,TGI,[2],> 100 µM
same,TGI,[3],> 100 µM
same,TGI,[4],> 100 µM
same,TGI,[5],> 100 µM
same,TGI,[6],> 100 µM
same,TGI,[7],> 100 µM
same,TGI,[8],> 100 µM
same,TGI,[9],> 100 µM
same,TGI,[10],> 100 µM
same,TGI,[11],> 100 µM
same,TGI,[12],> 100 µM
same,TGI,[13],> 100 µM
same,TGI,[14],> 100 µM
same,TGI,[15],> 100 µM
same,TGI,[16],> 100 µM
same,TGI,[17],> 100 µM
same,TGI,[18],0.156 µM
same,TGI,[19],> 100 µM
same,TGI,[20],> 100 µM
same,TGI,[21],> 100 µM
same,TGI,[22],> 100 µM
same,TGI,[23],> 100 µM
same,TGI,[24],> 100 µM
same,TGI,[25],> 100 µM
same,TGI,[26],> 100 µM
same,TGI,[27],> 100 µM
same,TGI,[28],> 100 µM
same,TGI,[29],> 100 µM
same,TGI,[30],> 100 µM
same,TGI,[31],> 100 µM
same,TGI,[32],> 100 µM
same,TGI,[33],> 100 µM
same,TGI,[34],> 100 µM
same,TGI,[35],> 100 µM
same,TGI,[36],> 100 µM
same,TGI,[37],> 100 µM
same,TGI,[38],> 100 µM
same,TGI,[39],> 100 µM
same,TGI,[40],> 100 µM
same,TGI,[41],> 100 µM
same,TGI,[42],> 100 µM
same,TGI,[43],> 100 µM
same,TGI,[44],> 100 µM
same,TGI,[45],> 100 µM
same,TGI,[46],> 100 µM
same,TGI,[47],> 100 µM
same,TGI,[48],> 100 µM
same,TGI,[49],> 100 µM
same,TGI,[50],> 100 µM
same,TGI,[51],> 100 µM
same,TGI,[52],> 100 µM
CC(C)(C)OP(=O)(OC(C)(C)C)C(O)c1ccc(/C=C(\C#N)C(N)=O)cc1 (centres undefined),TGI,[1],> 100 µM
same,TGI,[53],> 100 µM
same,TGI,[2],> 100 µM
same,TGI,[3],> 100 µM
same,TGI,[4],> 100 µM
same,TGI,[5],> 100 µM
same,TGI,[6],> 100 µM
same,TGI,[54],> 100 µM
same,TGI,[7],> 100 µM
same,TGI,[8],> 100 µM
same,TGI,[9],> 100 µM
same,TGI,[10],> 100 µM
same,TGI,[11],> 100 µM
same,TGI,[12],> 100 µM
same,TGI,[13],> 100 µM
same,TGI,[14],> 100 µM
same,TGI,[15],> 100 µM
same,TGI,[16],> 100 µM
same,TGI,[17],> 100 µM
same,TGI,[18],> 100 µM
same,TGI,[19],> 100 µM
same,TGI,[55],> 100 µM
same,TGI,[20],> 100 µM
same,TGI,[21],> 100 µM
same,TGI,[56],> 100 µM
same,TGI,[22],> 100 µM
same,TGI,[24],> 100 µM
same,TGI,[25],> 100 µM
same,TGI,[26],> 100 µM
same,TGI,[27],> 100 µM
same,TGI,[28],> 100 µM
same,TGI,[29],> 100 µM
same,TGI,[30],> 100 µM
same,TGI,[57],> 100 µM
same,TGI,[31],> 100 µM
same,TGI,[32],> 100 µM
same,TGI,[33],> 100 µM
same,TGI,[34],> 100 µM
same,TGI,[35],> 100 µM
same,TGI,[36],> 100 µM
same,TGI,[37],> 100 µM
same,TGI,[38],> 100 µM
same,TGI,[39],> 100 µM
same,TGI,[40],> 100 µM
same,TGI,[41],> 100 µM
same,TGI,[42],> 100 µM
same,TGI,[43],> 100 µM
same,TGI,[44],> 100 µM
same,TGI,[45],> 100 µM
same,TGI,[47],> 100 µM
same,TGI,[48],> 100 µM
same,TGI,[49],> 100 µM
same,TGI,[50],> 100 µM
same,TGI,[51],> 100 µM
same,TGI,[52],> 100 µM
O=C1N2Cc3c4ccc5c3CN3C(=O)N6Cc7c(ccc(c7CN1C6(c1ccccc1)C23c1ccccc1)OCCOCCOc1cc(Br)c(Br)cc1OCCOCCO4)OCCOCCOc1cc(Br)c(Br)cc1OCCOCCO5 (centres undefined),TGI,[1],> 100 µM
same,TGI,[53],> 100 µM
same,TGI,[3],> 100 µM
same,TGI,[4],67.7 µM
same,TGI,[5],> 100 µM
same,TGI,[6],> 100 µM
same,TGI,[54],> 100 µM
same,TGI,[8],> 100 µM
same,TGI,[9],> 100 µM
same,TGI,[10],> 100 µM
same,TGI,[11],28.3 µM
same,TGI,[12],> 100 µM
same,TGI,[13],> 100 µM
same,TGI,[14],> 100 µM
same,TGI,[58],> 100 µM
same,TGI,[15],> 100 µM
same,TGI,[16],> 100 µM
same,TGI,[17],37.9 µM
same,TGI,[18],> 100 µM
same,TGI,[20],> 100 µM
same,TGI,[21],> 100 µM
same,TGI,[56],> 100 µM
same,TGI,[22],> 100 µM
same,TGI,[23],> 100 µM
same,TGI,[24],> 100 µM
same,TGI,[26],> 100 µM
same,TGI,[27],> 100 µM
same,TGI,[28],> 100 µM
same,TGI,[30],> 100 µM
same,TGI,[57],90 µM
same,TGI,[31],> 100 µM
same,TGI,[32],> 100 µM
same,TGI,[34],> 100 µM
same,TGI,[35],> 100 µM
same,TGI,[36],> 100 µM
same,TGI,[37],> 100 µM
same,TGI,[38],> 100 µM
same,TGI,[39],> 100 µM
same,TGI,[40],> 100 µM
same,TGI,[41],> 100 µM
same,TGI,[42],42.1 µM
same,TGI,[43],> 100 µM
same,TGI,[44],> 100 µM
same,TGI,[45],> 100 µM
same,TGI,[46],> 100 µM
same,TGI,[47],> 100 µM
same,TGI,[59],> 100 µM
same,TGI,[48],> 100 µM
same,TGI,[49],> 100 µM
same,TGI,[50],> 100 µM
same,TGI,[51],> 100 µM
same,TGI,[52],> 100 µM
